US20250177566A1, “USE OF CHEMICAL EPIGENETIC MODIFIERS TO MODULATE GENE EXPRESSION” (The University of North Carolina at Chapel Hill, priority 2022, published 2025)

Legend:
Assay type in all cases: cell-based, human
TRE3G-GFP reporter gene = TRE3G-GFP reporter gene activation in HCT116, dCas9 + MS2-FKBP*x2 (F36V) system, flow cytometry; parameters: fold change, GFP: reference not given here; conditions: FIG. 5A, 10 nM, 48 hrs
CXCR4 [1] = test: CXCR4 mRNA activation in HCT116 stably expressing dCas9 and MS2-FKBPx2 (WT-FKBP), qRT-PCR; conditions: FIG. 6, WT FKBP system, 48 hrs
CXCR4 [2] = test: CXCR4 mRNA activation in HCT116 stably expressing dCas9 and MS2-FKBP*x2, qRT-PCR; conditions: for fold change, CXCR4 mRNA (CEM Treated vs Non-Treated): 48 hrs; for fold change, CXCR4 mRNA (CXCR4 gRNA vs NT gRNA): FIG. 3B; for fold change, CXCR4 mRNA (CXCR4 gRNA vs NT gRNA) / fold change, CXCR4 mRNA (washout vs AP1867 competition) / fold change, CXCR4 mRNA (Compare to 0 h): CEM203 50 nM; for fold change, CXCR4 mRNA (washout vs AP1867 competition): FIG. 3C; for fold change, CXCR4 mRNA (Compare to 0 h): FIG. 7A
Method: To further explore the activation potential of the SLF*-CEMa, their ability to target endogenous genes was evaluated (FIGS. 2A and 2B). Lentivirus was used to establish a stable HCT116 cell line expressing dCas9 and MS2-FKBP*x2 constructs, selecting for cells with antibiotic resistance. […] All CEMs were screened for their ability to activate the CXCR4 gene at 5 nM (FIG. 2C). RNA extraction and quantitative RT-PCR (qRT-PCR) were performed after 48 hours of CEM treatment.
To determine the optimal treatment concentration of the SLF*-CEMa molecules in this context, HCT116 cells were treated with 1 nM, 5 nM, 25 nM, and 50 nM of CEM203, CEM207, or CEM87. […] After 48 hours, RNA extraction followed by qRT-PCR was performed to evaluate the change in mRNA expression of CXCR4 (FIG. 2D). […] To directly compare this induced activation to other CRISPR-Cas9-based epigenetic activators, dCas9-VPR and dCas9-p300 constructs were virally infected into HCT116 cells and CXCR4 activation assessed in a similar fashion (FIGS. 2A and 2B).
To determine the time at which SLF*-CEMa most effectively induces gene activation, CXCR4 gene expression changes over time were investigated in dCas9 and MS2-FKBP*x2 stably infected HCT116 cells. Cells were treated with either vehicle, […] (FIG. 3A). RNA extraction and qRT-PCR were performed at 12, 24, 48, 72, and 96 hrs time points (FIG. 3B).
To investigate if endogenous gene activation triggered by the SLF*-CEMa compounds is also reversible, HCT116 cells were treated with CEM203 (50 nM) or CEM207 (25 nM) for 24 hours after transfecting CXCR4 gRNA, and then the CEMs were removed by media exchange at various time points. […] Likewise, it was investigated whether treatment with excess AP1867 could further reverse gene activation, potentially in a more robust fashion than with washout alone if there is any remaining intracellular SLF*-CEMa. To test this, after 24 hours of SLF*-CEMa treatment, a media exchange containing 20 μM AP1867 was performed (FIGS. 3C and 3D).
RNA extraction and qRT-PCR. All RNA extraction experiments were conducted in 12-well plate format. Culturing medium was removed, and cells were washed with 1×PBS, following with 0.05% trypsin to disassociate. After being quenched by medium and centrifuged, cells were washed with 1×PBS, and the RNA extraction was performed by using RNeasy Plus Mini kit (Qiagen, 74134). RT-qPCR was conducted by using RNA-to CT 1-step kit (Thermo Fisher Scientific, 4389986). The primer sets used in quantifying each gene can be found in Table 4.

**Q.** How did the “fold change, GFP” value (TRE3G-GFP reporter gene; NT gRNA) turn out when `CC[C@H](C(=O)N1CCCC[C@H]1C(=O)O[C@H](CCc1ccc(OC)c(OC)c1)c1cccc(OCC(=O)NCCOCCOCCOCCOCCNC(=O)C[C@@H]2N=C(c3ccc(Cl)cc3)c3cc(OC)ccc3-n3c(C)nnc32)c1)c1cc(OC)c(OC)c(OC)c1` [CEM203, (1R)-1-(3-((20-((4S)-6-(4-Chlorophenyl)-8-methoxy-1-methyl-4H-benzo[f][1,2,4]triazolo[4,3-a][1,4]diazepin-4-yl)-2,19-dioxo-6,9,12,15-tetraoxa-3,18-diazaicosyl)oxy)phenyl)-3-(3,4-dimethoxyphenyl) propyl (2S)-1-((S)-2-(3,4,5-trimethoxyphenyl)butanoyl) piperidine-2-carboxylate] was run?
**A.** 0.7 fold

**Q.** And the “fold change, GFP” value (TRE3G-GFP reporter gene; TRE3G gRNA)?
**A.** 9.4 fold

**Q.** What about the “fold change, CXCR4 mRNA (CXCR4 gRNA vs NT gRNA)” value (CXCR4 [1]; 25 nM) of the same molecule?
**A.** 1.5 fold

**Q.** What about the “fold change, CXCR4 mRNA (CXCR4 gRNA vs NT gRNA)” value (CXCR4 [1]; 200 nM) of the same molecule?
**A.** 3.5 fold

**Q.** What about the “fold change, CXCR4 mRNA (CEM Treated vs Non-Treated)” value (CXCR4 [2]; FIG. 2D, CXCR4 gRNA, 1 nM) of the same molecule?
**A.** 2.3 fold

**Q.** And the “fold change, CXCR4 mRNA (CEM Treated vs Non-Treated)” value (CXCR4 [2]; FIG. 2D, CXCR4 gRNA, 5 nM)?
**A.** 13.0 fold

**Q.** And the “fold change, CXCR4 mRNA (CEM Treated vs Non-Treated)” value (CXCR4 [2]; FIG. 2D, CXCR4 gRNA, 25 nM)?
**A.** 35.9 fold

**Q.** And the “fold change, CXCR4 mRNA (CEM Treated vs Non-Treated)” value (CXCR4 [2]; FIG. 2D, CXCR4 gRNA, 50 nM)?
**A.** 54.0 fold

**Q.** What about the “fold change, CXCR4 mRNA (CEM Treated vs Non-Treated)” value (CXCR4 [2]; FIG. 2D, NT gRNA, 1 nM) of the same molecule?
**A.** 0.98 fold

**Q.** What about the “fold change, CXCR4 mRNA (CEM Treated vs Non-Treated)” value (CXCR4 [2]; FIG. 2D, NT gRNA, 5 nM) of the same molecule?
**A.** 1.30 fold

**Q.** And the “fold change, CXCR4 mRNA (CEM Treated vs Non-Treated)” value (CXCR4 [2]; FIG. 2D, NT gRNA, 25 nM)?
**A.** 2.42 fold

**Q.** What about the “fold change, CXCR4 mRNA (CEM Treated vs Non-Treated)” value (CXCR4 [2]; FIG. 2D, NT gRNA, 50 nM) of the same molecule?
**A.** 2.57 fold

**Q.** And the “CXCR4 activation compared to dCas9-p300” value (CXCR4 [2]; FIG. 2D, concentrations above 5 nM)?
**A.** higher CXCR4 activation

**Q.** What about the “fold change, CXCR4 mRNA (CXCR4 gRNA vs NT gRNA)” value (CXCR4 [2]; 24 h) of the same molecule?
**A.** 17.9 fold

**Q.** And the “fold change, CXCR4 mRNA (CXCR4 gRNA vs NT gRNA)” value (CXCR4 [2]; 48 h)?
**A.** 19.8 fold

**Q.** And the “fold change, CXCR4 mRNA (CXCR4 gRNA vs NT gRNA)” value (CXCR4 [2]; 48 h AP1867 (washout with 20 μM AP1867 after 24 hrs))?
**A.** 3.6 fold

**Q.** What about the “fold change, CXCR4 mRNA (CXCR4 gRNA vs NT gRNA)” value (CXCR4 [2]; 48 h wash (media washout after 24 hrs)) of the same molecule?
**A.** 7.7 fold

**Q.** And the “fold change, CXCR4 mRNA (CXCR4 gRNA vs NT gRNA)” value (CXCR4 [2]; 72 h)?
**A.** 13.1 fold

**Q.** And the “fold change, CXCR4 mRNA (CXCR4 gRNA vs NT gRNA)” value (CXCR4 [2]; 72 h AP1867 (washout with 20 μM AP1867 after 24 hrs))?
**A.** 1.9 fold

**Q.** What about the “fold change, CXCR4 mRNA (CXCR4 gRNA vs NT gRNA)” value (CXCR4 [2]; 72 h wash (media washout after 24 hrs)) of the same molecule?
**A.** 5.6 fold

**Q.** And the “fold change, CXCR4 mRNA (CXCR4 gRNA vs NT gRNA)” value (CXCR4 [2]; 96 h AP1867 (washout with 20 μM AP1867 after 24 hrs))?
**A.** 1.2 fold

**Q.** What about the “fold change, CXCR4 mRNA (CXCR4 gRNA vs NT gRNA)” value (CXCR4 [2]; 96 h wash (media washout after 24 hrs)) of the same molecule?
**A.** 3.3 fold

**Q.** What about the “fold change, CXCR4 mRNA (washout vs AP1867 competition)” value (CXCR4 [2]; 48 h) of the same molecule?
**A.** 1.5 fold

**Q.** And the “fold change, CXCR4 mRNA (washout vs AP1867 competition)” value (CXCR4 [2]; 72 h)?
**A.** 4.2 fold

**Q.** What about the “fold change, CXCR4 mRNA (washout vs AP1867 competition)” value (CXCR4 [2]; 96 h) of the same molecule?
**A.** 1.7 fold

**Q.** And the “fold change, CXCR4 mRNA (Compare to 0 h)” value (CXCR4 [2]; NT gRNA, 12 h)?
**A.** 4.9 fold

**Q.** What about the “fold change, CXCR4 mRNA (Compare to 0 h)” value (CXCR4 [2]; NT gRNA, 24 h) of the same molecule?
**A.** 2.2 fold

**Q.** What about the “fold change, CXCR4 mRNA (Compare to 0 h)” value (CXCR4 [2]; NT gRNA, 48 h) of the same molecule?
**A.** 1.1 fold

**Q.** And the “fold change, CXCR4 mRNA (Compare to 0 h)” value (CXCR4 [2]; NT gRNA, 48 h AP1867 (washout with 20 μM AP1867 after 24 hrs))?
**A.** 0.8 fold

**Q.** What about the “fold change, CXCR4 mRNA (Compare to 0 h)” value (CXCR4 [2]; NT gRNA, 48 h wash (media washout after 24 hrs)) of the same molecule?
**A.** 0.7 fold

**Q.** And the “fold change, CXCR4 mRNA (Compare to 0 h)” value (CXCR4 [2]; NT gRNA, 72 h)?
**A.** 1.0 fold

**Q.** What about the “fold change, CXCR4 mRNA (Compare to 0 h)” value (CXCR4 [2]; NT gRNA, 72 h AP1867 (washout with 20 μM AP1867 after 24 hrs)) of the same molecule?
**A.** 0.6 fold

**Q.** And the “fold change, CXCR4 mRNA (Compare to 0 h)” value (CXCR4 [2]; NT gRNA, 72 h wash (media washout after 24 hrs))?
**A.** 0.8 fold

**Q.** And the “fold change, CXCR4 mRNA (Compare to 0 h)” value (CXCR4 [2]; NT gRNA, 96 h)?
**A.** 1.3 fold

**Q.** What about the “fold change, CXCR4 mRNA (Compare to 0 h)” value (CXCR4 [2]; NT gRNA, 96 h AP1867 (washout with 20 μM AP1867 after 24 hrs)) of the same molecule?
**A.** 0.5 fold

**Q.** And the “fold change, CXCR4 mRNA (Compare to 0 h)” value (CXCR4 [2]; NT gRNA, 96 h wash (media washout after 24 hrs))?
**A.** 0.7 fold

**Q.** What about the “CXCR4 mRNA expression after CEM washout in comparison to cells continuously treated” value (CXCR4 [2]; FIGS. 3C and 3D, CEM203 50 nM or CEM207 25 nM for 24 hours, then media exchange, all time points) of the same molecule?
**A.** significantly lowered CXCR4 mRNA expression

**Q.** What about the “time point of highest (peak) CXCR4 mRNA activation” value (CXCR4 [2]; time course 12, 24, 48, 72, 96 hrs, CXCR4 gRNA) of the same molecule?
**A.** 24 h
